Test results published in patent US20170273901A1, “SUNITINIB FORMULATIONS AND METHODS FOR USE THEREOF IN TREATMENT OF OCULAR DISORDERS” (THE JOHNS HOPKINS UNIVERSITY, priority 2014, published 2017).

Assays:
[1] = Drug ocular retention in vivo after SC injection (autofluorescence imaging of eyeballs); set-up: species or system Sprague Dawley rats; settings: rat eye
Procedure: At post injection (PI) day 0, 1, 3, 7, 14 and 28, the whole eyeballs (n=4) were harvested after the animals were sacrificed. […] The fluorescent images were analyzed using the Living Image 3.0 software (Caliper Lifesciences, Inc.), and the retention of sunitinib was quantified by comparing to the fluorescence counts of the eye immediately undertaken SC injection. Rat eyes without SC injection were used as the baseline.

[2] = system: corneal NV; assay: Treatment of suture-induced corneal NV, quantitative analysis of NV area and length; assay type: in vivo, Sprague Dawley rats; settings: single SC injection 30 μL, 5 mg sunb-malate/mL; POD 5, 7, 14
From the text: Corneal NV was induced by intrastromal suturing. […] The distance between the stitch and the limbus was approximately 2 mm while there was a distance of 1 mm between the two stitches. […] Erythromycin antibiotic ointment was applied to prevent potential infection and corneal dry-up. The rats were followed for 2 weeks. The corneas of all rats were examined by slit-lamp biomicroscope (SL120; Carl Zeiss AG, Oberkochen, Germany) and corneal photographs were taken with a digital camera. The area and length of vascularized cornea were quantified with Photoshop CS3.0. The arc was drawn along the limbus, the vascularized area pixel measured and the corneal NV area was calculated using the following equation: The vascularized area was evenly divided into six sections. The distance between vessel tips and the limbus at the five intersection points of the arc was measured. The average of the five measured lengths was regarded as the corneal NV length.

[3] = Solubility of sunb-malate in PBS; assay type: physicochemical

time to clearance after SC injection ([1]; 30 μL of 5 mg/mL): ≤ 1 days
time to almost no drug retention in the eye ([1]; SC injection): ≤ 24 h
concentration dissolved in PBS [3]: at least 25 mg/mL
SMILES: CCN(CC)CCNC(=O)c1c(C)[nH]c(/C=C2\C(=O)Nc3ccc(F)cc32)c1C.O=C(O)C[C@H](O)C(=O)O [Sunb-malate free drug, Sunitinib malate]
inhibition of corneal NV (length and area) [2]: negligible effect
